How the values were obtained:
Assay type in all cases: functional, cell-based
[1] = test system: MDA-MB-468; test: Cytotoxicity against human MDA-MB-468 cells assessed as growth inhibition after 72 hrs by SRB assay
[2] = test system: MDA-MB-231; test: Cytotoxicity against human MDA-MB-231 cells assessed as growth inhibition after 72 hrs by SRB assay
[3] = test system: HCC70; test: Cytotoxicity against human HCC70 cells assessed as growth inhibition after 72 hrs by SRB assay
[4] = test system: BT-549; test: Cytotoxicity against human BT549 cells assessed as growth inhibition after 72 hrs by SRB assay

Row | Structure (SMILES) | IC50 ([1]; mda-mb-468) [µM] | IC50 ([2]; mda-mb-231) [µM] | IC50 ([3]; hcc70) [µM] | IC50 ([4]; bt-549) [µM] | IC50 ([1]; Homo sapiens, MDA-MB-468, 72 h) [µM] | IC50 ([2]; Homo sapiens, MDA-MB-231, 72 h) [µM] | IC50 ([3]; Homo sapiens, HCC70, 72 h) [µM] | IC50 ([4]; Homo sapiens, BT-549, 72 h) [µM]
1 | CC1=C[C@H]2O[C@@H]3C[C@@H](OC(=O)/C=C\C=C\[C@@H](OCCC4=CC(=O)OC4)[C@@H](C)O)[C@](C)([C@@]2(CO)CC1)[C@@]31CO1 | > 10 | > 10 | > 10 | > 10 |  |  |  | 
2 | CC1=C[C@H]2O[C@@H]3C[C@@H](OC(=O)/C=C\C=C\[C@]4([C@H](C)O)OCC/C(=C\C(=O)O)[C@@H]4O)[C@](C)([C@@]2(CO)CC1)[C@@]31CO1 | > 10 | 3.6 | 7.7 | 1.8 |  |  |  | 
3 | CC1=C[C@H]2O[C@@H]3C[C@H]4OC(=O)/C=C\C=C\[C@]5([C@H](C)O)OCC/C(=C\C(=O)OC[C@@]2(CC1)[C@]4(C)[C@@]31CO1)[C@H]5O | 3.4 | 2 | 2.2 | 1.8 |  |  |  | 
4 | CC1=C[C@H]2O[C@@H]3C[C@H]4OC(=O)/C=C\C=C\[C@]5([C@H](C)O)OCC/C(=C\C(=O)OC[C@@]2(CC1)[C@]4(C)[C@@]31CO1)[C@@H]5O | 0.003 | 0.0004 | 0.001 | 0.0003 |  |  |  | 
5 | CC1=C[C@H]2O[C@@H]3C[C@@H](OC(=O)/C=C\C=C\[C@@H](OCCC4=CC(=O)OC4)[C@@H](C)O)[C@](C)([C@@]2(COC(=O)/C=C(\C)CCO)CC1)[C@@]31CO1 | 0.08 | 0.02 | 0.02 | 0.004 |  |  |  | 
6 | C/C1=C\C(=O)OC[C@@]23CC[C@](C)(O)[C@H]4C[C@@]5(O)[C@@H](C[C@@H](OC(=O)/C=C\C=C\[C@H]([C@@H](C)O)OCC1)[C@]25C)O[C@H]43 |  |  |  |  | > 10 | > 10 | > 10 | > 10
7 | COC(=O)/C=C/C=C/[C@@H](OCC/C(C)=C/C(=O)OC[C@]12CCC(C)=C[C@H]1O[C@@H]1C[C@@H](O)[C@@]2(C)[C@@]12CO2)[C@@H](C)O | > 10 | > 10 | > 10 | > 10 |  |  |  | 
8 | COc1cccc2c1C(=O)c1c(O)c3c(c(O)c1C2=O)C[C@@](O)(C(=O)CO)C[C@@H]3O[C@H]1C[C@H](N)[C@H](O)[C@H](C)O1 [DOXORUBICIN] |  |  |  |  | 0.07 | 0.08 | 0.05 | 0.01
9 | COc1cc([C@@H]2c3cc4c(cc3[C@@H](O[C@@H]3O[C@@H]5CO[C@@H](C)O[C@H]5[C@H](O)[C@H]3O)[C@H]3COC(=O)[C@H]23)OCO4)cc(OC)c1O [ETOPOSIDE] |  |  |  |  | 2.1 | 2.3 | 1.8 | 1.8
10 | CC1=C[C@H]2O[C@@H]3C[C@H]4OC(=O)/C=C\C=C\[C@H]([C@@H](C)O)OCC/C(C)=C/C(=O)OC[C@@]2(CC1)[C@]4(C)[C@]31CO1 [RORIDIN E] | 5e-05 | 3e-05 | 2e-05 | 2e-05 |  |  |  | 
